The source of these data is patent US8093273B2, “Flavanoids and isoflavanoids for the prevention and treatment of cardiovascular diseases” (Resverlogix Corp., priority 2004, dated 2012).

SMILES strings stand for the structures.

One data set deals with ApoA-I protein. In words: ApoA-I protein expression in HepG2 cells (ELISA of conditioned media). Format: cell-based, human. The settings on record: 7.5 μM. As to the method:
This study confirmed that compounds of the invention have an effect on ApoA-I protein secretion in HepG2 (liver) cells by measuring whether stimulation of transcriptional activity of the endogenous ApoA-I promoter in the HepG2 cells increased the abundance and secretion of ApoA-I protein.
The HepG2 cell line was obtained from the ATCC and cultured in MEM media supplemented with 10% FBS (Gibco), with 1 mM sodium pyruvate, 0.1 mM MEM non-essential amino acid, 2 mM L-glutamine, 100 U/ml penicillin, 100 μg/ml streptomycin and 5 μg/ml plasmocin. Cells were maintained at 37° C. in an atmosphere of 5% CO2 Cells were grown to 85% confluency prior to initiating the experiment.
Cells were plated and allowed to adhere overnight in a phenol red-free DMEM containing 10% of Charcoal/Dextran treated FBS (Hyclone), with 1 mM sodium pyruvate, 0.1 mM MEM non-essential amino acid, 2 mM L-glutamine, 100 U/ml penicillin, 100 μg/ml streptomycin and 5 μg/ml plasmocin. The medium was removed, and cells were washed in 1×PBS. Cells were then starved in phenol red-free DMEM (serum free) for a period of 24 hours. Cells were then mock treated (untreated, DMSO), or treated with compound of the invention diluted in phenol red-free DMEM (serum free) media at a concentration of 7.5 μM. Cells and media were harvested at 0, 6 and 24 hours following compound treatment.
Medium was removed from cells at the desired times and applied to a solid phase capture sandwich in an ELISA assay according to manufacturer's instructions (Total human Apolipoprotein ELISA Assay-Alercheck).
In general terms: In an ELISA, binding on a coated surface is turned into a signal by an enzyme label.

The subject of the next data set is human ApoA-I promoter. As to the kind of experiment: ApoA-I promoter induction in HepG2 liver cells (pAI.474-Luc luciferase reporter). The following applies: average values at 15 μM, 48 hours incubation. Type of data set: cell-based. In short, it runs like this: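 HepG2 stably transfected with pAI.474-Luc, starved 24 h in MEM + 0.5% FBS, then treated with compounds at final 0–100 μM for 48 h. Luciferase activity in lysates, normalized to Bradford protein.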
In general terms: In a reporter assay the amount or activity of a reporter protein is the signal.

The nature of another data set: Caco-2 permeability. The following applies: human, Caco-2. Format: in vitro ADME, human. The source says:
The Caco-2 cell drug transport model is widely used for screening compounds in drug discovery to assess intestinal transport and predict absorption rates.
For orientation: Caco-2 monolayers are a common model of the intestinal barrier.

By Papp is commonly meant the rate of passage across a membrane or cell layer, normalised by area and donor concentration. For the compound `O=c1cc(-c2ccc(O)cc2)oc2ncccc12` [Example 34, 2-(4-Hydroxy-phenyl)-pyrano[2,3-b]pyridin-4-one], in the data set on ApoA-I protein (6 and 24 hours, vs untreated cells and cells treated with solvent), the “ApoA-I content in the medium (ELISA)” value is reported as “increased significantly”. Also, in the data set on ApoA-I protein (time course 0, 6, 24 hours), the “time after addition of compound at which ApoA-I levels in the medium start to increase” value is ~6 h. The “ApoA-I Promoter Induction” value in the data set on human ApoA-I promoter is “increased”. In “Caco-2 permeability”, this compound displayed an apparent permeability coefficient (Papp) of 6.36 ×10⁻⁶ cm/s.
